Source: ChEMBL document CHEMBL5579878, “Allosteric Activation of Protein Phosphatase 5 with Small Molecules” (J Med Chem, 2024)
Calls of active or inactive are those of the source. The calls are words filed in the database; no cut-off is given here.

How the values were obtained:
[1] = AUC (0 to t) in Sprague-Dawley rat at 10 mg/kg, ip measured after 8 hrs by LC-MS/MS analysis; format: ADME, organism-based; conditions: in vivo
[2] = target: T1, Tyrosine-protein phosphatase non-receptor type 2 (Homo sapiens) (UniProt P17706); test: Inhibition of PTPN2 (unknown origin) using DiFMUP as substrate at 0.01 to 1000 uM; conditions: dose 0.01-1000 µM
T1 sequence (whole entry): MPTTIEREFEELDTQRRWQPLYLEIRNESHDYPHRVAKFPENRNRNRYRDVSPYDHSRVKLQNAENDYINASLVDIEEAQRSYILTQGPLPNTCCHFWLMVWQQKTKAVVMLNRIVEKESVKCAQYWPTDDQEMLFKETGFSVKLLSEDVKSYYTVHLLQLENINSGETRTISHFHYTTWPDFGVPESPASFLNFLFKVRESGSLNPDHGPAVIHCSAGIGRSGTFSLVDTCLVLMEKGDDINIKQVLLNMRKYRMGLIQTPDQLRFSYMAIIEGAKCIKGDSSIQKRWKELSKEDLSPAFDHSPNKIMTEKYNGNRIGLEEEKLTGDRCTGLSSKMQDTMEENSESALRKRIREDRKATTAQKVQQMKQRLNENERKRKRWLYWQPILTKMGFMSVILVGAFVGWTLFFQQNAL

[3] = target: T2, Serine/threonine-protein phosphatase 5 (Homo sapiens) (UniProt P53041); test: Binding affinity to His-tagged human PP5 extracted from Escherichia coli BL21 at 200 uM by STD-NMR analysis; conditions: filed as activator
T2 sequence (whole entry): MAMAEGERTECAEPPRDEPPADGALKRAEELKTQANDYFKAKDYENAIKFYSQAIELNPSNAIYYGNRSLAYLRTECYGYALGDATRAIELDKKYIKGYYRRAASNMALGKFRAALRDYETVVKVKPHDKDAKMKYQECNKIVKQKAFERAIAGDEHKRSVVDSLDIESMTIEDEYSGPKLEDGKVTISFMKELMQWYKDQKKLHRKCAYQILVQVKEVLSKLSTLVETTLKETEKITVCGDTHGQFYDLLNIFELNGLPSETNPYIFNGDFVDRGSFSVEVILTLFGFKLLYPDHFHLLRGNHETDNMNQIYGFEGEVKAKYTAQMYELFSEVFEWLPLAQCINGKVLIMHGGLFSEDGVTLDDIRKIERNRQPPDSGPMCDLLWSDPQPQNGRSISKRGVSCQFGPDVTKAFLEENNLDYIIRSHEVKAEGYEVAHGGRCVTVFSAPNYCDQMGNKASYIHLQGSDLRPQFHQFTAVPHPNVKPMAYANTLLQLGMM

[4] = system: HCT-116; test: Antitumor activity against human HCT-116 cells xenografted in BALB/c nude mouse at 30 to 60 mg/kg, ip administered every other day for 14 days in presence of AT13387; format: functional, organism-based; conditions: dose 30-60 mg/kg, time 14.0 day
[5] = system: HCT-116; test: Antitumor activity against human HCT-116 cells xenografted in BALB/c nude mouse at 60 mg/kg, ip administered every other day for 14 days; format: functional, organism-based; conditions: time 14.0 day
[6] = target: T3, Tyrosine-protein phosphatase non-receptor type 11 (Homo sapiens) (UniProt Q06124); test: Inhibition of SHP2 (unknown origin) using DiFMUP as substrate at 0.01 to 1000 uM; conditions: dose 0.01-1000 µM
T3 sequence (whole entry): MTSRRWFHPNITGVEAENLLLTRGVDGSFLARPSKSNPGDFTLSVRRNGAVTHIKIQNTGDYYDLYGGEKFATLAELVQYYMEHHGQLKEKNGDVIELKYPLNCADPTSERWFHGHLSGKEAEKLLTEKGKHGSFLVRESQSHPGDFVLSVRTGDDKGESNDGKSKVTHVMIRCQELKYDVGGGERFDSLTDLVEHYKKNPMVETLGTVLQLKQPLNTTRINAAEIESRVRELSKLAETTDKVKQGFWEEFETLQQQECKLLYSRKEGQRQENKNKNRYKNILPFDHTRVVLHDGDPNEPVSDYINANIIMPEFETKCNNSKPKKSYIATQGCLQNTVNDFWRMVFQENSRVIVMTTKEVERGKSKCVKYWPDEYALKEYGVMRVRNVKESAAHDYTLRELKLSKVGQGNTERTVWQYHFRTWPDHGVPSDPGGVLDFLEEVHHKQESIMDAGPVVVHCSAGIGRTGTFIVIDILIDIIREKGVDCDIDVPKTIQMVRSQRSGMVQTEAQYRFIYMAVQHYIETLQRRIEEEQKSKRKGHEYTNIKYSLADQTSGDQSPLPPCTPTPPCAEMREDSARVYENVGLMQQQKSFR

[7] = target: T4, Serine/threonine-protein phosphatase 5 (Homo sapiens, UniProt P53041); test: Binding affinity to full length His-tagged human PP5 extracted from Escherichia coli BL21 assessed as dissociation constant by ITC analysis
T4 sequence (P53041 whole entry): T2 sequence (whole entry)

[8] = system: HCT-116; test: Downregulation of AT13387-induced HSP27 mRNA expression in human HCT-116 cells at 50 uM incubated for 24 hrs by qRT-PCR analysis; format: functional, cell-based
[9] = system: HCT-116; test: Effect on HSP27 expression level in human HCT-116 cells at 1 to 100 uM incubated for 24 hrs by Western blot analysis; format: functional, cell-based; conditions: dose 1-100 µM
[10] = target: Serine/threonine-protein phosphatase PP1-alpha catalytic subunit (Homo sapiens) (UniProt P62136); test: Inhibition of PP1A (unknown origin) using DiFMUP as substrate at 0.01 to 1000 uM; conditions: dose 0.01-1000 µM
Sequence of Serine/threonine-protein phosphatase PP1-alpha catalytic subunit (Homo sapiens) (P62136 whole entry, the tested form may be a part): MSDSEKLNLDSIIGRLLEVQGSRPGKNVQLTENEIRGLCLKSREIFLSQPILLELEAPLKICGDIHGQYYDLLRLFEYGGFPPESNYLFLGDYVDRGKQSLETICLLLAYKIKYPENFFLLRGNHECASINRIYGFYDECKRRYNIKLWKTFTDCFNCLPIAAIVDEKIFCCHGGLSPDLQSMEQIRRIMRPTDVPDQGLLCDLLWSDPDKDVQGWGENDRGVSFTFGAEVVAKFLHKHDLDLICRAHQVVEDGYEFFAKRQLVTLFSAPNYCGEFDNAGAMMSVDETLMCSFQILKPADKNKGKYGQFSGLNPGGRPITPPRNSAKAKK

[11] = target: T2, Serine/threonine-protein phosphatase 5 (Homo sapiens); test: Binding affinity to His-tagged human PP5 TPR domain extracted from Escherichia coli BL21 by ITC analysis
[12] = Toxicity in BALB/c nude mouse xenografted with human HCT-116 cells assessed as body weight loss at 60 mg/kg, ip administered every other day for 14 days; format: organism-based; conditions: in vivo, 336 h, time 14 day
[13] = target: T2, Serine/threonine-protein phosphatase 5 (Homo sapiens); test: Activation of PP5 in human HCT-116 cells assessed as decrease in intracellular S13 residue phosphorylated CDC37 level at 100 uM by Western blot analysis; format: cell-based; conditions: filed as activator, time <= 24.0 hrs, TDE = time-dependent effect
[14] = system: HCT-116; test: Antitumor activity against human HCT-116 cells xenografted in BALB/c nude mouse assessed as decrease in AT13387-induced HSP70 protein expression in tumor at 30 to 60 mg/kg, ip administered every other day for 14 days by Western blot analysis; format: functional, organism-based; conditions: dose 30-60 mg/kg, time 14.0 day
[15] = system: SW-620; test: Enhancement of HSP90 inhibitor AT13387-induced antiproliferative activity against human SW620 cells assessed as HSP90 inhibitor AT13387 IC50 at 50 uM incubated for 72 hrs by CCK8 assay (reference value: 122.3 nM); format: functional, cell-based; conditions: SW-620, 72 h
[16] = target: T2, Serine/threonine-protein phosphatase 5 (Homo sapiens); test: Activation of PP5 in human HCT-116 cells assessed as decrease in intracellular S13 residue phosphorylated CDC37 level incubated for 24 hrs by Western blot analysis; format: cell-based; conditions: filed as activator, dose <= 100.0 µM
[17] = system: SW-620; test: Enhancement of HSP90 inhibitor AT13387-induced antiproliferative activity against human SW620 cells assessed as fold change in HSP90 inhibitor AT13387 IC50 at 50 uM incubated for 72 hrs by CCK8 assay; format: functional

- AUC(0-t) at 8 h [1]: 111 ng·h/mL
- inhibition [2]: inactive
- Activity [3]: Active
- inhibition [6]: inactive
- Kd [7]: 1140 nM
- inhibition [10]: inactive
- Activity [11]: inactive
- Activity [13]: Tde
- IC50 [15]: 54.4 nM
- Activity [16]: Dose-Dependent Effect
Structure (SMILES): N=c1oc2cc(F)cc(F)c2cc1C(N)=S
- Activity [4]: Active
- Activity [5]: inactive
- Activity [8]: Active
- Activity [9]: inactive
- Activity [12]: Non-Toxic
- Activity [14]: Active
- fold change (FC) [17]: 2
